Laboratory results published in EP4768484A1, “HETEROCYCLIC FUSED RING COMPOUND, AND COMPOSITION AND USE THEREOF” (Shenzhen TargetRx, Inc., priority 2023, dated 2025).
pIC50: −log10 of the molar value.

Legend:
Type in all cases: cell-based
Ba/F3 BCR-ABL1 T315I = target: T1, Ba/F3 BCR-ABL1 T315I (Homo sapiens, UniProt P00519+P11274, T315I); assay: Cell growth inhibitory activity assay (CellTiter-Glo), Ba/F3 BCR-ABL1 T315I cells; conditions: 72 h, CTG cell viability
T1 construct: BCR (N-terminal fusion partner of the oncoprotein); expressed in transfected cells; host or cells: Ba/F3 (lentiviral transduction, monoclonal line)
Procedure: (§1) In this assay, the Celltiter-Glo (CTG) kit provided by Promega was used, and it is a homogeneous cell viability assay method. The cell viability of cultured cells was measured by quantifying ATP. K562 cells were purchased from Nanjing Kebai, product number CBP60529; Ba/F3 parental cells were purchased from RIKEN BRC, product number RCB0805; other cells containing BCR-ABL1 WT, BCR-ABL1 T315I, BCR-ABL1 T315M, BCR-ABL1 Y253H/E255K, BCR-ABL1 E255V/T3151, BCR-ABL1 A424T, BCR-ABL1 A337V, BCR-ABL1 P465S, BCR-ABL1 V468F, and BCR-ABL1 I502L were all monoclonal engineered cell lines obtained by transducting Ba/F3 parental cells with the lentivirus plasmids containing WT or corresponding mutated BCR-ABL1.
(§2) The steps of cell viability assay are as follows: • a) Cells in logarithmic growth phase were collected. Cell suspension was prepared and the cells were counted. Concentration of the cells was calculated. • b) The cell suspension was diluted to the required concentration and then added to the middle wells of a 96-well plate, and PBS was added to the edge wells. The wells with no cells and only culture medium were used as blank controls. • c) In addition to the cell plate used for compound analysis, another 96-well plate was prepared as a T0 plate, and 3-6 blank wells and 3-6 cell wells were added. The next day, CTG was used to test the cell viability as the T0 viability value of the cells. • d) The cell plate was incubated at 37 °C in a 5% CO2 incubator overnight. • e) The next day, each concentration of a compound subjected to a gradient dilution was added, and the cell plate was incubated at 37 °C in a 5% CO2 incubator for 72 h. The wells with no compound and only 0.5% DMSO were used as positive controls for cell growth. • f) CTG reagent (CellTiter-Glo kit) was added according to the manufacturer's instructions to test the cell viability value. • g) The plate was read using Biotek cytation3.0 microplate reader and the data were exported. • h) IC50 was calculated using GraphPad Prism 7.0 software.
(§3) The IC50 (half-maximal inhibitory concentration) of the compound was obtained using the following nonlinear fitting formula: Y = Bottom + (Top−Bottom)/(1+10^(∧)((LogIC50−X)*HillSlope)) [formula] • X: Log value of the compound concentration • Y: Inhibition rate (% inhibition) • Top: Maximum response • Bottom: Baseline response • HillSlope: Slope of the curve
(§4) The formula for calculating cell inhibition rate (inhibition rate %) was: [formula]

K562 cells = assay: Cell growth inhibitory activity assay (CellTiter-Glo), K562 cells; conditions: Homo sapiens, 72 h, CTG cell viability
Procedure: as §1, §2, §3, §4

Ba/F3 BCR-ABL1 WT = target: T2, Ba/F3 BCR-ABL1 WT (Homo sapiens, UniProt P00519+P11274); assay: Cell growth inhibitory activity assay (CellTiter-Glo), Ba/F3 BCR-ABL1 WT cells; conditions: 72 h, CTG cell viability
T2 construct: BCR (N-terminal fusion partner of the oncoprotein); expressed in transfected cells; host or cells: Ba/F3 (lentiviral transduction, monoclonal line)
Procedure: as §1, §2, §3, §4

Ba/F3 parental cells = assay: Cell growth inhibitory activity assay (CellTiter-Glo), Ba/F3 parental cells; conditions: Mus musculus, BaF3, 72 h, CTG cell viability, read-out: IC50 Ba/F3 BCR-ABL1 Parental
Procedure: as §1, §2, §3, §4

Row | SMILES | pIC50 (Ba/F3 BCR-ABL1 T315I) | pIC50 (K562 cells) | pIC50 (Ba/F3 BCR-ABL1 WT) | pIC50 (Ba/F3 parental cells)
1 | CC(=O)NC1CCC2c3cc(C(=O)Nc4ccc(OC(F)(F)Cl)cc4)cc(-c4cnccn4)c3N(C(C)C)C12 (racemic) [T-12, 3-acetamido-N-(4-(chlorodifluoromethoxy)phenyl)-4-isopropyl-5-(pyrazin-2-yl)-1,2,3,3a,4,8b-hexahydrocyclopenta[b]indole-7-carboxamide] | 6.00 to 7.30 | 7.30 to 8.30 | 7.30 to 8.30 | < 6.00
2 | O=C(Nc1ccc(OC(F)(F)Cl)cc1)c1cnc(N2CC[C@@H](F)C2)c(-c2cnc3c(c2)-c2n[nH]cc2C3)c1 [T-1, (R)-N-(4-(chlorodifluoromethoxy)phenyl)-5-(2,4-dihydropyrazolo[3',4':3,4]cyclopenta[1,2-b]pyridin-7-yl)-6-(3-fluoropyrrolidin-1-yl)nicotinamide] | ≥ 8.30 | ≥ 8.30 | ≥ 8.30 | < 6.00
3 | O=C(Nc1ccc(OC(F)(F)Cl)cc1)c1cnc(N2CC[C@@H](F)C2)c(-c2cnc3c(c2)-c2nn(-c4ncccn4)cc2C3)c1 [T-5, (R)-N-(4-(chlorodifluoromethoxy)phenyl)-6-(3-fluoropvrrolidin-1-yl)-5-(2-(pyrimidin-2-yl)-2,4-dihydropyrazolo[3',4':3,4]cyclopenta[1,2-b]pyridin-7-yl)nicotinamide] | ≥ 8.30 | ≥ 8.30 | ≥ 8.30 | < 6.00
4 | O=C(Nc1ccc(OC(F)(F)Cl)cc1)c1cnc(N2CC[C@@H](F)C2)c(-c2cnc3c(c2)-c2nn(-c4ncc(F)cn4)cc2C3)c1 [T-6-A, (R)-N-(4-(chlorodifluoromethoxy)phenyl)-5-(2-(5-fluoropyrimidin-2-yl)-2,4-dihydropyrazolo[3',4':3,4]cyclopenta[1,2-b]pyridin-7-yl)-6-(3-fluoropyrrolidin-1-yl)nicotinamide] | ≥ 8.30 | ≥ 8.30 | ≥ 8.30 | < 6.00
5 | O=C(Nc1ccc(OC(F)(F)Cl)cc1)c1cnc(N2CC[C@@H](F)C2)c(-c2cnc3c(c2)-c2c(cnn2-c2ncc(F)cn2)C3)c1 [T-6-B, (R)-N-(4-(chlorodifluoromethoxy)phenyl)-5-(1-(5-fluoropyrimidin-2-yl)-1,4-dihydropyrazolo[3',4':3,4]cyclopenta[1,2-b]pyridin-7-yl)-6-(3-fluoropyrrolidin-1-yl)nicotinamide] | 7.30 to 8.30 | ≥ 8.30 | ≥ 8.30 | < 6.00
6 | CN1Cc2ncc(-c3cc(C(=O)Nc4ccc(OC(F)(F)Cl)cc4)cc4c3C3(CCCCC3)C(=O)N4)cc2C1=O [T-8, N-(4-(chlorodifluoromethoxy)phenyl)-4'-(6-methyl-5-oxo-6,7-dihydro-5H-pyrrolo[3,4-b]pyridin-3-yl)-2'-oxospiro[cyclohexane-1,3'-indoline]-6'-carboxamide] | 7.30 to 8.30 | ≥ 8.30 | ≥ 8.30 | < 6.00
7 | C[C@@H]1COCc2nc3cc(C(=O)Nc4ccc(OC(F)(F)Cl)cc4)cc(-c4cnc5c(c4)-c4nn(C(F)F)cc4C5)c3n21 [T-51, (R)-N-(4-(chlorodifluoromethoxy)phenyl)-6-(2-(difluoromethyl)-2,4-dihydropyrazolo[3',4':3,4]cyclopenta[1,2-b]pyridin-7-yl)-4-methyl-3,4-dihydro-1H-benzo[4,5]imidazo[2,1-c][1,4]oxazine-8-carboxamide] | – | ≥ 8.30 | 7.30 to 8.30 | < 6.00
8 | [2H]C1([2H])c2cn(-c3ncccn3)nc2-c2cc(-c3cc(C(=O)Nc4ccc(OC(F)(F)Cl)cc4)cc4nc5n(c34)[C@H](C)COC5)cnc21 [T-105, (R)-N-(4-(chlorodifluoromethoxy)phenyl)-4-methyl-6-(2-(pyrimidin-2-yl)-2,4-dihydropyrazolo[3',4':3,4]cyclopenta[1,2-b]pyridin-7-yl-4,4-d2)-3,4-dihydro-1H-benzo[4,5]imidazo[2,1-c][1,4]oxazine-8-carboxamide] | ≥ 8.30 | ≥ 8.30 | ≥ 8.30 | –
9 | C[C@@H]1COCc2nc3cc(C(=O)Nc4ccc(OC(F)(F)Cl)cc4)cc(-c4cnc5c(c4)-c4nn(-c6ncccn6)cc4C5O)c3n21 (stereo partly drawn) [T-106, (4R)-N-(4-(chlorodifluoromethoxy)phenyl)-6-(4-hydroxy-2-(pyrimidin-2-yl)-2,4-dihydropyrazolo[3',4':3,4]cyclopenta[1,2-b]pyridin-7-yl)-4-methyl-3,4-dihydro-1H-benzo[4,5]imidazo[2,1-c][1,4]oxazine-8-carboxamide] | ≥ 8.30 | ≥ 8.30 | ≥ 8.30 | –
10 | C[C@@H]1COCc2nc3cc(C(=O)Nc4ccc(OC(F)(F)Cl)cc4)cc(-c4cnc5c(c4)-c4nn(-c6ncccn6)cc4C5F)c3n21 (stereo partly drawn) [T-107, (4R)-N-(4-(chlorodifluoromethoxy)phenyl)-6-(4-fluoro-2-(pyrimidin-2-yl)-2,4-dihydropyrazolo[3',4':3,4]cyclopenta[1,2-b]pyridin-7-yl)-4-methyl-3,4-dihydro-1H-benzo[4,5]imidazo[2,1-c][1,4]oxazine-8-carboxamide] | ≥ 8.30 | ≥ 8.30 | ≥ 8.30 | –
11 | Cn1ccc(-c2ccnc(-n3cc4c(n3)-c3cc(-c5cc(C(=O)Nc6ccc(OC(F)(F)Cl)cc6)cc6c5C5(CCCCC5)C(=O)N6)cnc3C4)n2)n1 [T-138, N-(4-(chlorodifluoromethoxy)phenyl)-4'-(2-(4-(1-methyl-1H-pyrazol-3-yl)pyrimidin-2-yl)-2,4-dihydropyrazolo[3',4':3,4]cyclopenta[1,2-b]pyridin-7-yl)-2'-oxospiro[cyclohexane-1,3'-indoline]-6'-carboxamide] | ≥ 8.30 | ≥ 8.30 | ≥ 8.30 | –
12 | O=C(Nc1ccc(OC(F)(F)Cl)cc1)c1cc2c(c(-c3cnc4c(c3)-c3nn(-c5nccc(-c6ccc(F)nc6)n5)cc3C4)c1)C1(CCCCC1)C(=O)N2 [T-139, N-(4-(chlorodifluoromethoxy)phenyl)-4'-(2-(4-(6-fluoropyridin-3-yl)pyrimidin-2-yl)-2,4-dihydropyrazolo[3',4':3,4]cyclopenta[1,2-b]pyridin-7-yl)-2'-oxospiro[cyclohexane-1,3'-indoline]-6'-carboxamide] | ≥ 8.30 | ≥ 8.30 | ≥ 8.30 | –
13 | O=C(Nc1ccc(OC(F)(F)Cl)cc1)c1cc2c(c(-c3cnc4c(c3)-c3nn(-c5nccc(-c6cncc(F)c6)n5)cc3C4)c1)C1(CCCCC1)C(=O)N2 [T-140, N-(4-(chlorodifluoromethoxy)phenyl)-4'-(2-(4-(5-fluoropyridin-3-yl)pyrimidin-2-yl)-2,4-dihydropyrazolo[3',4':3,4]cyclopenta[1,2-b]pyridin-7-yl)-2'-oxospiro[cyclohexane-1,3'-indoline]-6'-carboxamide] | ≥ 8.30 | ≥ 8.30 | ≥ 8.30 | –
14 | O=C(Nc1ccc(OC(F)(F)Cl)cc1)c1cnc(N2CC[C@@H](F)C2)c(-c2cnc3c(c2)-c2nn(-c4nccc(-c5ccc(F)nc5)n4)cc2C3)c1 [T-141, (R)-N-(4-(chlorodifluoromethoxy)phenyl)-5-(2-(4-(6-fluoropyridin-3-yl)pyrimidin-2-yl)-2,4-dihydropyrazolo[3',4':3,4]cyclopenta[1,2-b]pyridin-7-yl)-6-(3--fluoropyrrolidin-1-yl)nicotinamide] | ≥ 8.30 | ≥ 8.30 | ≥ 8.30 | –
15 | O=C(Nc1ccc(OC(F)(F)Cl)cc1)c1cnc(N2CC[C@@H](F)C2)c(-c2cnc3c(c2)-c2nn(-c4nccc(-c5cncc(F)c5)n4)cc2C3)c1 [T-142, (R)-N-(4-(chlorodifluoromethoxy)phenyl)-5-(2-(4-(5-fluoropyridin-3-yl)pyrimidin-2-yl)-2,4-dihydropyrazolo[3',4':3,4]cyclopenta[1,2-b]pyridin-7-yl)-6-(3-fluoropyrrolidin-1-yl)nicotinamide] | ≥ 8.30 | ≥ 8.30 | ≥ 8.30 | –
